Laboratory results taken from patent US6737383B1, “Herbicidal oxadiazolidines” (priority 1999, dated 2004).

How the values were obtained:
surinam grass = experiment: Test B pre/postemergence surinam grass; format: in vivo, Brachiaria decumbens
Summary of the method: (§1)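 Response is a visual 0-to-10 score relative to untreated plants, where 0 means no effect and 10 means complete control, taken twelve to sixteen days after application. Treatments went onto soil at planting and onto foliage of 1- to 4-leaf plants, using a surfactant-containing non-phytotoxic solvent.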

bamyardgrass = experiment: Test B flood test barnyardgrass; format: in vivo, Echinochloa crus-galli; details: for Plant response rating, Barnyardgrass (0 to 10 scale, 0 is no effect, 10 is complete control): Rate 62 g/ha; for Plant response rating, Barnyardgrass (0 to 10 scale, 0 is no effect, 10 is complete control) / Barnyardgrass plant response rating (0 to 10 scale, 0 is no effect, 10 is complete control): visual evaluation after twelve to sixteen days; for Barnyardgrass plant response rating (0 to 10 scale, 0 is no effect, 10 is complete control): Rate 125 g/ha, under heading Pre-emergence
Summary of the method: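 Plants were grown to the 2-leaf stage before treatment with test chemical, then held in a greenhouse for twelve to sixteen days. Injury was visually rated against untreated controls on a 0–10 scale, where 0 is no effect and 10 is complete control.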

blackgrass = experiment: Test B pre/postemergence blackgrass; format: in vivo, Alopecurus myosuroides
Summary of the method: as §1

bedstraw = experiment: Test B pre/postemergence bedstraw; format: in vivo, Galium aparine
Summary of the method: as §1

[1] = Postemergence, Rate 125 g/ha, scale 0 to 10, 0 is no effect, 10 is complete control
[2] = Postemergence, Rate 250 g/ha, scale 0 to 10, 0 is no effect, 10 is complete control
[3] = Postemergence, Rate 500 g/ha, scale of 0 to 10 where 0 is no effect and 10 is complete control
[4] = Preemergence, Rate 62 g/ha, scale 0 to 10 (0 no effect, 10 complete control)
[5] = Preemergence, Rate 125 g/ha, scale of 0 to 10 where 0 is no effect and 10 is complete control
[6] = Preemergence, Rate 250 g/ha, scale of 0 to 10 where 0 is no effect and 10 is complete control
[7] = Preemergence, Rate 500 g/ha, scale of 0 to 10 where 0 is no effect and 10 is complete control
[8] = Rate 62 g/ha, Postemergence, scale of 0 to 10 where 0 is no effect and 10 is complete control
[9] = flood test species, Pre-emergence
[10] = Rate 250 g/ha, Pre-emergence, flood-test species, scale 0 to 10, 0 is no effect, 10 is complete control
[11] = Rate 500 g/ha, Pre-emergence, flood test species, scale 0 to 10 (0 no effect, 10 complete control)
[12] = Preemergence, Rate 500 g/ha, scale 0 to 10, 0 is no effect, 10 is complete control
[13] = Postemergence, Rate 62 g/ha, scale of 0 to 10, 0 is no effect, 10 is complete control
[14] = Preemergence, Rate 125 g/ha, scale 0 to 10, 0 is no effect, 10 is complete control
[15] = Rate 250 g/ha, Postemergence, scale of 0 to 10 where 0 is no effect and 10 is complete control
[16] = Rate 250 g/ha, Pre-emergence (flood test species), scale 0 to 10, 0 is no effect, 10 is complete control
[17] = Rate 500 g/ha, Pre-emergence section of Table B, 0 to 10 scale (0 no effect, 10 complete control)
[18] = Preemergence, Rate 62 g/ha, scale of 0 to 10 where 0 is no effect and 10 is complete control
[19] = Preemergence, Rate 250 g/ha, scale 0 to 10, 0 is no effect, 10 is complete control
[20] = Rate 62 g/ha, Postemergence, scale 0 to 10, 0 no effect, 10 complete control
[21] = Rate 125 g/ha, Postemergence, scale 0 to 10, 0 is no effect, 10 is complete control

## Cc1nc(Cl)sc1C(C)n1c(=O)on(C(=O)N(c2ccc(F)cc2)C(C)C)c1=O (stereo not shown) [Compound 401]
Surinam grass; [1]
  Plant response rating, B. signalgrass: 0
Surinam grass; [2]
  Plant response rating, B. signalgrass: 0
Surinam grass; [3]
  B. signalgrass plant response rating: 0
Surinam grass; [4]
  Plant response rating, B. signalgrass: 0
Surinam grass; [5]
  Plant response rating, B. signalgrass: 0
Surinam grass; [6]
  B. signalgrass plant response rating: 0
Surinam grass; [7]
  B. signalgrass plant response rating: 0
Surinam grass; [8]
  B. signalgrass plant response rating: 0
bamyardgrass; [9]
  Plant response rating, Barnyardgrass (0 to 10 scale, 0 is no effect, 10 is complete control): 0
bamyardgrass; flood test species
  Barnyardgrass plant response rating (0 to 10 scale, 0 is no effect, 10 is complete control): 0
bamyardgrass; [10]
  Barnyardgrass plant response rating: 0
bamyardgrass; [11]
  Barnyardgrass plant response rating: 0
blackgrass; [1]
  Plant response rating, Blackgrass: 0
blackgrass; [2]
  Plant response rating, Blackgrass: 0
blackgrass; [3]
  Blackgrass plant response rating: 0
blackgrass; [4]
  Plant response rating, Blackgrass: 0
blackgrass; [5]
  Plant response rating, Blackgrass: 0
blackgrass; [6]
  Blackgrass plant response rating: 0
blackgrass; [12]
  Blackgrass plant response rating: 2
blackgrass; [8]
  Blackgrass plant response rating: 0
bedstraw; [4]
  Plant response rating, Bedstraw: 0
bedstraw; [5]
  Plant response rating, Bedstraw: 0

## CC(C)N(C(=O)n1oc(=O)n(CC2CCC2)c1=O)c1ccc(F)cc1 [Compound 403]
Surinam grass; [1]
  Plant response rating, B. signalgrass: 2
Surinam grass; [2]
  Plant response rating, B. signalgrass: 3
Surinam grass; [3]
  B. signalgrass plant response rating: 6
Surinam grass; [4]
  Plant response rating, B. signalgrass: 3
Surinam grass; [5]
  Plant response rating, B. signalgrass: 4
Surinam grass; [6]
  B. signalgrass plant response rating: 5
Surinam grass; [7]
  B. signalgrass plant response rating: 7
Surinam grass; [8]
  B. signalgrass plant response rating: 0
bamyardgrass; [9]
  Plant response rating, Barnyardgrass (0 to 10 scale, 0 is no effect, 10 is complete control): 2
bamyardgrass; flood test species
  Barnyardgrass plant response rating (0 to 10 scale, 0 is no effect, 10 is complete control): 4
bamyardgrass; [10]
  Barnyardgrass plant response rating: 2
bamyardgrass; [11]
  Barnyardgrass plant response rating: 7
blackgrass; [1]
  Plant response rating, Blackgrass: 9
blackgrass; [2]
  Plant response rating, Blackgrass: 10
blackgrass; [3]
  Blackgrass plant response rating: 10
blackgrass; [4]
  Plant response rating, Blackgrass: 2
blackgrass; [5]
  Plant response rating, Blackgrass: 7
blackgrass; [6]
  Blackgrass plant response rating: 7
blackgrass; [12]
  Blackgrass plant response rating: 9
blackgrass; [8]
  Blackgrass plant response rating: 6
bedstraw; [1]
  Plant response rating, Bedstraw: 2
bedstraw; [3]
  Bedstraw plant response rating: 8
bedstraw; [4]
  Plant response rating, Bedstraw: 0
bedstraw; [5]
  Plant response rating, Bedstraw: 0
bedstraw; [8]
  Bedstraw plant response rating: 0

## CCCCCCn1c(=O)on(C(=O)N(c2ccccc2)C(C)C)c1=O [Compound 558]
Surinam grass; [13]
  B. signalgrass plant response rating: 0
Surinam grass; [3]
  Plant response rating, B. signalgrass: 3
Surinam grass; [4]
  B. signalgrass plant response rating: 0
Surinam grass; [14]
  B. signalgrass plant response rating: 0
Surinam grass; Preemergence, Rate 250 g/ha
  B. signalgrass plant response rating (0 to 10 scale, 0 is no effect, 10 is complete control): 3
Surinam grass; [7]
  B. signalgrass plant response rating: 6
Surinam grass; [15]
  Plant response rating, B. signalgrass: 0
bamyardgrass; [9]
  Plant response rating, Barnyardgrass (0 to 10 scale, 0 is no effect, 10 is complete control): 0
bamyardgrass; flood test species
  Barnyardgrass plant response rating (0 to 10 scale, 0 is no effect, 10 is complete control): 0
bamyardgrass; [16]
  Barnyardgrass plant response rating: 2
bamyardgrass; [17]
  Barnyardgrass plant response rating: 6
blackgrass; [13]
  Blackgrass plant response rating: 0
blackgrass; [1]
  Blackgrass plant response rating: 0
blackgrass; [3]
  Plant response rating, Blackgrass: 2
blackgrass; [4]
  Blackgrass plant response rating: 2
blackgrass; [14]
  Blackgrass plant response rating: 2
blackgrass; Preemergence, Rate 250 g/ha
  Blackgrass plant response rating (0 to 10 scale): 6
blackgrass; [7]
  Blackgrass plant response rating: 9
blackgrass; [15]
  Plant response rating, Blackgrass: 2
bedstraw; [1]
  Bedstraw plant response rating: 0
bedstraw; [4]
  Bedstraw plant response rating: 0
bedstraw; [14]
  Bedstraw plant response rating: 0
bedstraw; Preemergence, Rate 250 g/ha
  Bedstraw plant response rating (0 to 10 scale): 0
bedstraw; [7]
  Bedstraw plant response rating: 0
bedstraw; [15]
  Plant response rating, Bedstraw: 0

## CC(C)N(C(=O)n1oc(=O)n(COCC[Si](C)(C)C)c1=O)c1ccc(Cl)cc1 [Compound 467]
Surinam grass; Postemergence, Rate 250 g/ha, scale 0 to 10, 0 no effect, 10 complete control
  B. signalgrass plant response rating: 0
Surinam grass; [3]
  B. signalgrass plant response rating: 0
Surinam grass; [18]
  Plant response rating, B. signalgrass: 0
Surinam grass; [5]
  Plant response rating, B. signalgrass: 0
Surinam grass; [19]
  B. signalgrass plant response rating: 0
Surinam grass; [12]
  B. signalgrass plant response rating: 2
Surinam grass; [20]
  B. signalgrass plant response rating: 0
Surinam grass; [21]
  B. signalgrass plant response rating: 0
bamyardgrass; [9]
  Plant response rating, Barnyardgrass (0 to 10 scale, 0 is no effect, 10 is complete control): 0
bamyardgrass; flood test species
  Barnyardgrass plant response rating (0 to 10 scale, 0 is no effect, 10 is complete control): 0
bamyardgrass; [16]
  Barnyardgrass plant response rating: 0
bamyardgrass; [11]
  Barnyardgrass plant response rating: 0
blackgrass; Postemergence, Rate 250 g/ha, scale 0 to 10
  Blackgrass plant response rating: 0
blackgrass; [3]
  Blackgrass plant response rating: 7
blackgrass; [18]
  Plant response rating, Blackgrass: 0
blackgrass; [5]
  Plant response rating, Blackgrass: 2
blackgrass; [19]
  Blackgrass plant response rating: 2
blackgrass; [12]
  Blackgrass plant response rating: 2
blackgrass; [20]
  Blackgrass plant response rating: 0
blackgrass; [21]
  Blackgrass plant response rating: 0
bedstraw; [18]
  Plant response rating, Bedstraw: 0
bedstraw; [5]
  Plant response rating, Bedstraw: 0
bedstraw; [19]
  Bedstraw plant response rating: 0
bedstraw; [12]
  Bedstraw plant response rating: 0

## CCCCn1c(=O)on(C(=O)N(c2ccccc2)C(C)C)c1=O [Compound 556]
Surinam grass; [13]
  B. signalgrass plant response rating: 0
Surinam grass; [1]
  B. signalgrass plant response rating: 2
Surinam grass; [3]
  Plant response rating, B. signalgrass: 7
Surinam grass; [4]
  B. signalgrass plant response rating: 6
Surinam grass; [14]
  B. signalgrass plant response rating: 7
Surinam grass; Preemergence, Rate 250 g/ha
  B. signalgrass plant response rating (0 to 10 scale, 0 is no effect, 10 is complete control): 7
Surinam grass; [7]
  B. signalgrass plant response rating: 9
Surinam grass; [15]
  Plant response rating, B. signalgrass: 4
bamyardgrass; [9]
  Plant response rating, Barnyardgrass (0 to 10 scale, 0 is no effect, 10 is complete control): 0
bamyardgrass; flood test species
  Barnyardgrass plant response rating (0 to 10 scale, 0 is no effect, 10 is complete control): 0
bamyardgrass; [16]
  Barnyardgrass plant response rating: 0
bamyardgrass; [17]
  Barnyardgrass plant response rating: 1
blackgrass; [13]
  Blackgrass plant response rating: 0
blackgrass; [1]
  Blackgrass plant response rating: 3
blackgrass; [3]
  Plant response rating, Blackgrass: 6
blackgrass; [4]
  Blackgrass plant response rating: 6
blackgrass; [14]
  Blackgrass plant response rating: 9
blackgrass; Preemergence, Rate 250 g/ha
  Blackgrass plant response rating (0 to 10 scale): 10
blackgrass; [7]
  Blackgrass plant response rating: 10
blackgrass; [15]
  Plant response rating, Blackgrass: 3
bedstraw; [13]
  Bedstraw plant response rating: 0
bedstraw; [1]
  Bedstraw plant response rating: 0
bedstraw; [3]
  Plant response rating, Bedstraw: 0
bedstraw; [4]
  Bedstraw plant response rating: 0
bedstraw; [14]
  Bedstraw plant response rating: 0
bedstraw; Preemergence, Rate 250 g/ha
  Bedstraw plant response rating (0 to 10 scale): 0
bedstraw; [7]
  Bedstraw plant response rating: 0
bedstraw; [15]
  Plant response rating, Bedstraw: 0
